According to patent US8674113B2, “Compounds” (Boehringer Ingelheim International GmbH, priority 2010, dated 2014):
Read-outs that look alike come from different tables or passages of the source.

Legend:
mPGES-1 in A549 cells = mPGES-1 in A549 cells (Homo sapiens (Human), UniProt O14684); assay: A549 cell-based assay (PGE2 formation, 50% human serum)
How it was run: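 PGE2 release, read by HTRF and set to 100% for vehicle, gave IC50s from 6-8 point titrations. Human A549 cells were exposed to compound for 20-24 h in medium with 50% human serum, with IL-1β (5 ng/ml) and arachidonic acid (10 nM) as stimulus.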

[1] = molecular target: recombinant human mPGES-1 (Homo sapiens (Human), UniProt O14684); assay: mPGES-1 enzyme assay (HTRF detection of PGE2); type: biochemical
Sequence of recombinant human mPGES-1 (O14684 whole entry): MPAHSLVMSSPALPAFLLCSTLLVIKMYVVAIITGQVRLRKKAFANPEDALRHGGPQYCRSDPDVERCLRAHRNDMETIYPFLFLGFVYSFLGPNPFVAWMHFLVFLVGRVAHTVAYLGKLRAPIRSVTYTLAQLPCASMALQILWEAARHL
How it was run: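 Microsomes from E. coli expressing recombinant human mPGES-1 (~0.5 μg protein/well) in 0.1 M phosphate pH 7.4 with 2.5 mM GSH, pre-incubated with compound 25 min at room temperature. PGH2 (2 μM final) added, reaction stopped with FeCl2 after 60 s; PGE2 quantified by HTRF (665/620 ratio) against a calibration curve, IC50 by nonlinear regression after background subtraction.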

[2] = IL-1β 5 ng/ml, 10 nM arachidonic acid, 20-24 h, read-out: mPGES-1 inhibitory effect IC50 in the cell assay
[3] = recombinant human mPGES-1 microsomes, PGH2 2 μM, 60 seconds, read-out: mPGES-1 inhibitory effect IC50 in the enzyme assay
[4] = Table C comparison of selected benzimidazoles, read-out: Cell IC50
[5] = Table C comparison of selected benzimidazoles, read-out: Enzym IC50

Sequence of mPGES-1 in A549 cells (O14684 whole entry): as above

Cn1c(Nc2c(Cl)ccc(CNC(=O)C(C)(C)F)c2Cl)nc2cc(C(=O)Nc3ccc(F)c(Cl)c3)c(N3CCC(C(F)(F)F)CC3)cc21 [Example 231, N-(3-Chloro-4-fluoro-phenyl)-2-{2,6-dichloro-3-[(2-fluoro-2-methyl-propionylamino)-methyl]-phenylamino}-6-[4-trifluoromethyl-piperidinyl]-1-methyl-1H-benzimidazole-5-carboxylic acid amide]
IC50 (mPGES-1 in A549 cells; [2]): 1.1 nM | IC50 [1, 3]: 2 nM

Cn1c(Nc2c(Cl)ccc(CNC(=O)C(C)(C)C(F)(F)F)c2Cl)nc2cc(C(=O)Nc3ccc(F)c(Cl)c3)c(N3CCC(C(F)(F)F)CC3)cc21 [Example 232]
IC50 (mPGES-1 in A549 cells; [2]): 1.4 nM | IC50 [1, 3]: 1.7 nM

Cn1c(Nc2c(Cl)ccc(CNC(=O)[C@@](C)(O)C(F)(F)F)c2Cl)nc2cc(C(=O)Nc3ccc(F)c(Cl)c3)c(N3CCC(C(F)(F)F)CC3)cc21 [Example 233]
IC50 (mPGES-1 in A549 cells; [2]): 1 nM | IC50 [1, 3]: 3.9 nM

Cn1c(Nc2c(Cl)ccc(CNC(=O)[C@](C)(O)C(F)(F)F)c2Cl)nc2cc(C(=O)Nc3ccc(F)c(Cl)c3)c(N3CCC(C(F)(F)F)CC3)cc21 [Example 234]
IC50 (mPGES-1 in A549 cells; [2]): 8 nM | IC50 [1, 3]: 3.1 nM

Cn1c(Nc2c(Cl)ccc(CNC(=O)C(C)(C)F)c2Cl)nc2cc(C(=O)Nc3ccc(F)c(Cl)c3)c(N3CC[C@@H](F)C3)cc21 [Example 235]
IC50 (mPGES-1 in A549 cells; [2]): 4.4 nM | IC50 [1, 3]: 3.9 nM

Cn1c(Nc2c(Cl)ccc(CNC(=O)C(C)(C)C(F)(F)F)c2Cl)nc2cc(C(=O)Nc3ccc(F)c(Cl)c3)c(N3CC[C@@H](F)C3)cc21 [Example 236]
IC50 (mPGES-1 in A549 cells; [2]): 2 nM | IC50 [1, 3]: 3.3 nM

Cn1c(Nc2c(Cl)ccc(CNC(=O)C(C)(C)F)c2Cl)nc2cc(C(=O)Nc3ccc(OC(F)(F)F)cc3)c(N3CCC(C(F)(F)F)CC3)cc21 [Example 237]
IC50 (mPGES-1 in A549 cells; [2]): < 1 nM | IC50 [1, 3]: 1.8 nM

Cn1c(Nc2c(Cl)ccc(CNC(=O)C(C)(C)C(F)(F)F)c2Cl)nc2cc(C(=O)Nc3ccc(OC(F)(F)F)cc3)c(N3CCC(C(F)(F)F)CC3)cc21 [Example 238]
IC50 (mPGES-1 in A549 cells; [2]): 2 nM | IC50 [1, 3]: 2.2 nM

Cn1c(Nc2c(Cl)ccc(CNC(=O)C(C)(C)F)c2Cl)nc2cc(C(=O)Nc3ccc(OC(F)(F)F)cc3)c(N3CC[C@@H](F)C3)cc21 [Example 239]
IC50 (mPGES-1 in A549 cells; [2]): 5 nM | IC50 [1, 3]: 3.5 nM

Cn1c(Nc2c(Cl)ccc(CNC(=O)C(C)(C)C(F)(F)F)c2Cl)nc2cc(C(=O)Nc3ccc(OC(F)(F)F)cc3)c(N3CC[C@@H](F)C3)cc21 [Example 240]
IC50 (mPGES-1 in A549 cells; [2]): 2 nM | IC50 [1, 3]: 4.9 nM

Cn1c(Nc2c(Cl)ccc(CNC(=O)C(C)(C)C)c2Cl)nc2cc(C(=O)Nc3ccc(OC(F)(F)F)cc3)c(N3CC[C@@H](F)C3)cc21 [Example 241]
IC50 (mPGES-1 in A549 cells; [2]): < 1 nM | IC50 [1, 3]: 3.5 nM

Cn1c(Nc2c(Cl)ccc(CNC(=O)C(C)(C)F)c2Cl)nc2cc(C(=O)Nc3cccc(C(F)(F)F)n3)c(N3CCC(C(F)(F)F)CC3)cc21 [Example 242]
IC50 (mPGES-1 in A549 cells; [2]): 5 nM | IC50 [1, 3]: 1.7 nM

Cn1c(Nc2c(Cl)ccc(CNC(=O)[C@@](C)(O)C(F)(F)F)c2Cl)nc2cc(C(=O)Nc3cccc(C(F)(F)F)n3)c(N3CCC(C(F)(F)F)CC3)cc21 [Example 243]
IC50 (mPGES-1 in A549 cells; [2]): 4.5 nM | IC50 [1, 3]: 2.9 nM

Cn1c(Nc2c(Cl)ccc(CNC(=O)[C@](C)(O)C(F)(F)F)c2Cl)nc2cc(C(=O)Nc3cccc(C(F)(F)F)n3)c(N3CCC(C(F)(F)F)CC3)cc21 [Example 244]
IC50 (mPGES-1 in A549 cells; [2]): 27 nM | IC50 [1, 3]: 4.2 nM

Cn1c(Nc2c(Cl)ccc(CNC(=O)C(C)(C)C)c2Cl)nc2cc(C(=O)Nc3cccc(C(F)(F)F)n3)c(N3CC[C@@H](F)C3)cc21 [Example 245]
IC50 (mPGES-1 in A549 cells; [2]): 2.4 nM | IC50 [1, 3]: 3.8 nM

Cn1c(Nc2c(Cl)ccc(CNC(=O)C(C)(C)C)c2Cl)nc2cc(C(=O)Nc3ccc(F)c(Cl)c3)c(N3CC[C@@H](F)C3)cc21 [Example 246]
IC50 (mPGES-1 in A549 cells; [2]): 1.5 nM | IC50 [1, 3]: 2.9 nM

Cn1c(Nc2c(Cl)ccc(CNC(=O)[C@@](C)(O)C(F)(F)F)c2Cl)nc2cc(C(=O)Nc3ccc(F)c(Cl)c3)c(N3CC[C@@H](F)C3)cc21 [Example 247]
IC50 (mPGES-1 in A549 cells; [2]): 3 nM | IC50 [1, 3]: 3 nM

Cn1c(Nc2c(Cl)ccc(CNC(=O)[C@](C)(O)C(F)(F)F)c2Cl)nc2cc(C(=O)Nc3ccc(F)c(Cl)c3)c(N3CC[C@@H](F)C3)cc21 [Example 248]
IC50 (mPGES-1 in A549 cells; [2]): 6 nM | IC50 [1, 3]: 6.7 nM

Cn1c(Nc2c(Cl)ccc(CNC(=O)C(C)(C)F)c2Cl)nc2cc(C(=O)N[C@H]3CC[C@H](C(F)(F)F)CC3)c(N3CCC(C(F)(F)F)CC3)cc21 [Example 249]
IC50 (mPGES-1 in A549 cells; [2]): 6 nM | IC50 [1, 3]: 4.2 nM

Cn1c(Nc2c(Cl)ccc(CNC(=O)C(C)(C)C(F)(F)F)c2Cl)nc2cc(C(=O)N[C@H]3CC[C@H](C(F)(F)F)CC3)c(N3CCC(C(F)(F)F)CC3)cc21 [Example 250]
IC50 (mPGES-1 in A549 cells; [2]): 1 nM | IC50 [1, 3]: 1.7 nM

Cn1c(Nc2c(Cl)ccc(CNC(=O)[C@@](C)(O)C(F)(F)F)c2Cl)nc2cc(C(=O)N[C@H]3CC[C@H](C(F)(F)F)CC3)c(N3CCC(C(F)(F)F)CC3)cc21 [Example 251]
IC50 (mPGES-1 in A549 cells; [2]): 1 nM | IC50 [1, 3]: 3.9 nM

Cn1c(Nc2c(Cl)ccc(CNC(=O)[C@](C)(O)C(F)(F)F)c2Cl)nc2cc(C(=O)N[C@H]3CC[C@H](C(F)(F)F)CC3)c(N3CCC(C(F)(F)F)CC3)cc21 [Example 252]
IC50 (mPGES-1 in A549 cells; [2]): 1.4 nM | IC50 [1, 3]: 2.9 nM

Cn1c(Nc2c(Cl)ccc(CNC(=O)C(C)(C)F)c2Cl)nc2cc(C(=O)N[C@H]3CC[C@@H](C(F)(F)F)CC3)c(N3CCC(C(F)(F)F)CC3)cc21 [Example 253]
IC50 (mPGES-1 in A549 cells; [2]): 2.4 nM | IC50 [1, 3]: 5.7 nM

Cn1c(Nc2c(Cl)ccc(CNC(=O)C(C)(C)C(F)(F)F)c2Cl)nc2cc(C(=O)N[C@H]3CC[C@@H](C(F)(F)F)CC3)c(N3CCC(C(F)(F)F)CC3)cc21 [Example 254]
IC50 (mPGES-1 in A549 cells; [2]): 1 nM | IC50 [1, 3]: 3.1 nM

Cn1c(Nc2c(Cl)ccc(CNC(=O)[C@](C)(O)C(F)(F)F)c2Cl)nc2cc(C(=O)N[C@H]3CC[C@@H](C(F)(F)F)CC3)c(N3CCC(C(F)(F)F)CC3)cc21 [Example 255]
IC50 (mPGES-1 in A549 cells; [2]): 4 nM | IC50 [1, 3]: 4.3 nM

Cn1c(Nc2c(Cl)ccc(CNC(=O)C(C)(C)F)c2Cl)nc2cc(C(=O)NC3CC(F)(F)C3)c(N3CCC(C(F)(F)F)CC3)cc21 [Example 256]
IC50 (mPGES-1 in A549 cells; [2]): 1 nM | IC50 [1, 3]: 3.9 nM

Cn1c(Nc2c(Cl)ccc(CNC(=O)C(C)(C)C(F)(F)F)c2Cl)nc2cc(C(=O)NC3CC(F)(F)C3)c(N3CCC(C(F)(F)F)CC3)cc21 [Example 257]
IC50 (mPGES-1 in A549 cells; [2]): 3.5 nM | IC50 [1, 3]: 1.9 nM

Cn1c(Nc2c(Cl)ccc(CNC(=O)[C@@](C)(O)C(F)(F)F)c2Cl)nc2cc(C(=O)NC3CC(F)(F)C3)c(N3CCC(C(F)(F)F)CC3)cc21 [Example 258]
IC50 (mPGES-1 in A549 cells; [2]): 4 nM | IC50 [1, 3]: 2.2 nM

Cn1c(Nc2c(Cl)ccc(CNC(=O)[C@](C)(O)C(F)(F)F)c2Cl)nc2cc(C(=O)NC3CC(F)(F)C3)c(N3CCC(C(F)(F)F)CC3)cc21 [Example 259]
IC50 (mPGES-1 in A549 cells; [2]): 2 nM | IC50 [1, 3]: 4.1 nM

Cn1c(Nc2c(Cl)ccc(CNC(=O)C(C)(C)F)c2Cl)nc2cc(C(=O)NCCC(F)(F)F)c(N3CCC(C(F)(F)F)CC3)cc21 [Example 260]
IC50 (mPGES-1 in A549 cells; [2]): 2 nM | IC50 [1, 3]: 4 nM

Cn1c(Nc2c(Cl)ccc(CNC(=O)C(C)(C)C(F)(F)F)c2Cl)nc2cc(C(=O)NCCC(F)(F)F)c(N3CCC(C(F)(F)F)CC3)cc21 [Example 261]
IC50 (mPGES-1 in A549 cells; [2]): 1.6 nM | IC50 [1, 3]: 2.9 nM

Cn1c(Nc2cc(CNC(=O)C(C)(C)C)ccc2Cl)nc2cc(C(=O)Nc3ccc(Br)cc3)c(OCC(F)F)cc21 [[drawing 48] of WO 2010/100249, reference compound]
IC50 (mPGES-1 in A549 cells; [4]): 10 nM | IC50 [1, 5]: 3 nM

Cn1c(Nc2cc(CNC(=O)C(C)(C)C)ccc2Cl)nc2cc(C(=O)NCC3CC3)c(OCC(F)F)cc21 [[drawing 52] of WO 2010/100249, reference compound]
IC50 (mPGES-1 in A549 cells; [4]): > 200 nM | IC50 [1, 5]: 2 nM
